Reference: publication PMC7662321, “Andrographolide and Its 14-Aryloxy Analogues Inhibit Zika and Dengue Virus Infection” (Molecules, 2020)

How the values were obtained:
[1] = MTT cytotoxicity assay in HEK293T/17 cells; assay type: cell-based; details: human, HEK293T/17 cells (human embryonic kidney), 24 h post-treatment
Experimental: (§1) Cytotoxicity of each compound towards cells for four selected cell lines in the range of 1 to 500 µM was evaluated using the MTT (3-(4,5-dimethylthiazol-2-yl)-2,5-diphenyltetrazolium bromide) assay at 24 h post-treatment, in parallel with control and vehicle-treated cells (0.1% dimethyl sulfoxide (DMSO)). The 50% cytotoxic concentration (CC50) values calculated from the dose-response curve (Supplementary Figures S2–S5) are shown in Table 1. Overall, a range of cytotoxicities were seen from the four compounds across the […]. The most cytotoxic combination was ZAD-1 and BHK-21 cells, while the least cytotoxic combination was andrographolide and BHK-21 cells (Table 1).
(§2) A549 cells were cultured in ninety-six-well tissue culture plates under standard conditions until the cells reached 90% confluence. The cell culture medium was removed and then cells were incubated with various concentrations of andrographolide (1–100 μM) diluted in complete medium with FBS prior to being cultured for 24 h under standard conditions before analysis using either the Vybrant MTT Cell proliferation assay kit (V13154, Invitrogen) or the alamarBlue (Thermo Fischer Scientific, Waltham, MA, USA) assay kit according to the manufacturers recommendations. Values were determined from 8 (MTT assay) or 3 (alamarBlue) independent replicates. Negative controls (only media and media with 0.1% DMSO) and positive controls (5% DMSO) were included. To determine cell number, cell cultures were trypsinized by the addition of 0.25% Trypsin/0.1% ethylelediaminetetraacetic acid (EDTA) for 3 min and then cell suspensions were diluted with 0.4% trypan blue solution. Cells were counted using a hemocytometer. Cell morphology was additionally observed under an inverted microscope after 24 h treatment with various concentrations of each compound.
Figu re S5. Cytotoxicity of ZAD -1 (A), ZA D-2 (B), ZA D-3 (C), and andro grapholide (D) to HEK293T/17 (human embryonic kidney) cells.
HEK293T/17 cells were incubated with various concentrations of each compound for 24 hrs followed by MTT cell viability assay. The experiment was undertaken independently in 4 replicates. DMSO at the same concentrations was used as a control.
10% ethanol, PBS, and milli- Q water were used as a positive control of cell death. […]

[2] = MTT cytotoxicity assay in Vero cells; assay type: cell-based; details: African green monkey, Vero cells (monkey kidney), 24 h post-treatment
Experimental: as §1, §2
Figu re S3. Cytotoxicity of ZAD -1 (A), ZA D-2 (B), ZA D-3 (C), and andro grapholide (D) to Ve r o (monkey kidney) cells. Ve r o cells were incubated with various concentrations of each compound for 24 hrs followed by MTT cell viability assay. The experiment was undertaken independently in 4 replicates. DMSO at the same concentrations was used as a control. 10% ethanol, PBS, and milli- Q water were used as a positive control of cell death. The bars show mean ± SD. […]

[3] = MTT cytotoxicity assay in A549 cells; assay type: cell-based; details: human, A549 cells (human lung carcinoma), 24 h post-treatment
Experimental: as §1, §2
(§3) Figu re S4. Cytotoxicity of ZAD -1 (A), ZA D-2 (B), ZA D-3 (C), and andro grapholide (D) to A549 (human lung carcinoma) cells. A549 cells were incubated with various concentrations of each compound for 24 hrs followed by MTT cell viability assay. The experiment was undertaken independently in 4 replicates.
(§4) DMSO at the same concentrations was used as a control. 10% ethanol, PBS, and milli- Q water were used as a positive control of cell death. The bars show mean ± SD. […]

ZIKV = assay: Percentage of ZIKV infection of A549 cells by flow cytometry; assay type: cell-based, Zika virus; details: A549, MOI 5, 10 and 25 µM, 24 h, vs vehicle
Experimental: To confirm the effects of andrographolide and the andrographolide analogues on ZIKV infection, A549 cells were infected with ZIKV at MOI of 5 for 2 h, and subsequently treated with the compounds at concentrations of 10 and 25 μM or with vehicle for 24 h. The cells were harvested for determination of the percentage of infection by flow cytometry, while the supernatants were collected for determination of viral titer by standard plaque assay.
HEK293T/17 or A549 cells were cultured in six-well plates under standard conditions until the cells reached 80% confluence. HEK293T/17 cells were infected with DENV 2, while A549 cells were infected with ZIKV Thai strain at MOI 5 for 2 h at 37 °C and 5% CO2 in culture medium without FBS. Mock infection was undertaken in parallel. After the infection period, the medium was removed and replaced with complete medium (including FBS) containing 0.1% DMSO (no treatment control) or the appropriate concentration of each compound and cells were again incubated under standard conditions. At 24 h post-treatment, cells were harvested for determination of effects of compounds on percentage of infection and supernatant was collected for determination of viral productivity. All experiments were undertaken independently in triplicate with duplicate plaque assay.
Mock- or viral-infected cells (with or without compound treatment) were harvested at an appropriate time point then incubated with 10% normal goat serum (NGS; Gibco Invitrogen) in PBS-immunofluorescence assay (IFA) buffer on ice for 30 min. The cells were washed with 800 µL of 1% BSA/PBS-IFA and fixed with 200 µL of 4% paraformaldehyde in PBS-IFA at room temperature in the dark for 20 min. After washing with 800 µL of 1% BSA/PBS-IFA, cells were permeabilized with 200 µL of 0.2% Triton X-100 in PBS-IFA for 10 min at room temperature in the dark. Subsequently, the cells were washed with 800 µL of 1% BSA/PBS-IFA followed by overnight incubation with 50 µL of primary antibody (1:150 dilution of pan-specific anti-dengue virus E protein antibody HB114 for DENV and 1:2 dilution of anti-flavivirus antibody HB112 for ZIKV). After washing twice with 800 µL of 1% BSA/PBS-IFA, the cells were incubated with 50 µL of a goat anti-mouse IgG conjugated with fluorescein isothiocyanate (FITC; KPL, Guilford, UK) diluted 1:40 with 1% BSA/PBS-IFA at room temperature in the dark for 1 h. The cells were washed twice with 800 µL of 1% BSA/PBS-IFA and resuspended in 100 µL of PBS-IFA. The fluorescence signal was analyzed by flow cytometry on a BD FACalibur cytometer (Becton Dickinson, BD Biosciences, San Jose, CA, USA) using CellQuest™ software (Version 6). All experiments were undertaken independently in triplicate. All raw flow cytometry data plots are provided in Supplementary Figures S13–S19.

[4] = MTT cytotoxicity assay in BHK-21 cells; assay type: cell-based; details: hamster, BHK-21 cells (baby hamster kidney), 24 h post-treatment
Experimental: as §1, §2
as §3, with “S2.” for “S4.”, “BHK- 21 (baby hamster kidney)” for “A549 (human lung carcinoma)”, “BHK- 21” for “A549”
as §4

DENV 2 = assay: Percentage of DENV 2 infection of HEK293T/17 cells by flow cytometry; assay type: cell-based, dengue virus; details: HEK293T/17, MOI 5, 10 µM, 24 h; exception to the significant reduction
Experimental: The effects of the compounds on DENV-2 infection were evaluated using HEK293T/17 as host cells at MOI of 5. The cells were infected with DENV 2 for 2 h and then the cells were incubated with the compounds at non-cytotoxic (or morphology altering) concentrations of 10 and 25 μM of ZAD-1 and ZAD-3, or 25 and 50 μM of ZAD-2, or 50 and 75 μM of andrographolide or 0.1% DMSO vehicle control. After 24 h of treatment, cells were harvested for determination of the percentage of infection by flow cytometry, while the culture supernatants were collected to determine the viral production.
HEK293T/17 or A549 cells were cultured in six-well plates under standard conditions until the cells reached 80% confluence. HEK293T/17 cells were infected with DENV 2, while A549 cells were infected with ZIKV Thai strain at MOI 5 for 2 h at 37 °C and 5% CO2 in culture medium without FBS. Mock infection was undertaken in parallel. […]
Mock- or viral-infected cells (with or without compound treatment) were harvested at an appropriate time point then incubated with 10% normal goat serum (NGS; Gibco Invitrogen) in PBS-immunofluorescence assay (IFA) buffer on ice for 30 min. […] The fluorescence signal was analyzed by flow cytometry on a BD FACalibur cytometer (Becton Dickinson, BD Biosciences, San Jose, CA, USA) using CellQuest™ software (Version 6). […]

Row | Compound | CC50 at 24 h [1] [µM] | CC50 at 24 h [2] [µM] | CC50 at 24 h [3] [µM] | number of ZIKV-infected cells (percentage of infection) (ZIKV) | CC50 at 24 h [4] [µM] | percentage of DENV 2 infection (DENV 2)
1 | C=C1CC[C@@H]2[C@](C)(CO)[C@H](O)CC[C@@]2(C)[C@@H]1C/C=C1/C(=O)OC[C@@H]1Oc1ccc([N+](=O)[O-])cc1OC [ZAD-2] | 197 ± 7 | 179 ± 13 | 194 ± 17 | no significant effects | 218 ± 16 | –
2 | C=C1CC[C@@H]2[C@](C)(COC(C)=O)[C@H](O)CC[C@@]2(C)[C@@H]1C/C=C1/C(=O)OC[C@H]1Oc1ccc([N+](=O)[O-])cc1OC [ZAD-3] | 201 ± 25 | 186 ± 25 | 190 ± 22 | no significant effects | 175 ± 7 | exception
